Measurements: patent publication US8084502B2, “Use of agmatine for protection of retinal ganglion cells” (priority 2007, dated 2011)
Where a SMILES comes first, the peptide text is derived from it. The star is where a group is joined. Cbz = O=C(OCc1ccccc1)*; CH2F = FC*

What was measured:
[1] = tested on: RGC-5; experiment: LDH assay, TNF-α-induced cell death; assay type: cell-based, rat
Experimental: The RGC-5 cell line, which is an RGC line developed from post-natal Sprague-Dawley rats, was grown in modified DMEM (Gibco) supplemented with 10% of heat inactivated fetal bovine serum (Gibco) and 100 U/mL of penicillin and 100 μg/mL of streptomycin (Gibco). The cells were passaged every 2 to 3 days and incubated at 37° C. in 5% of CO2 and air. At cultivation, the cells had the same morphology. For all experiments, cells were used at 80% of confluence.
After washing twice with PBS, cells were cultured in serum-free DMEM and treated with either 10 or 50 ng/mL of recombinant rat TNF-α (Chemicon) for up to 48 hours. The control cells were not exposed to TNF-α. 100 μM of agmatine was added to the culture medium at the start of injury as indicated.
Cell viability was quantified by measuring the amounts of LDH released from the injured cells after TNF-α administration. LDH release is expressed as a value relative to the value of 100, which is the maximum LDH release that occurs after freezing each culture at −70° C. overnight and then rapidly thawing, thus inducing nearly complete cell damage. All experiments were performed in at least quadruplicate, and repeated at least eight times using cell cultures derived from different platings.

[2] = tested on: caspase-3; experiment: Caspase-3 activity (colorimetric, Ac-DEVD-pNA cleavage) after hypoxia; assay type: cell-based, rat; conditions: hypoxia 24 hours; 100 μM of agmatine or 50 μM of Z-VAD-FMK
Experimental: The RGC-5 cell line, which is a RGC line developed from post-natal Sprague-Dawley rats, was grown in modified Dulbecco's Modified Eagle's Medium (DMEM; Gibco) supplemented with 10% of heat inactivated fetal bovine serum (Gibco) and 100 U/mL of penicillin and 100 μg/mL of streptomycin (Gibco). The cells were passaged every 2 to 3 days, and the cultures incubated at 37° C. in 5% of CO2 and air. […] For all experiments, cells were used at an 80% confluence. Cultures were transferred into a closed hypoxic chamber (Form a Scientific Co.) in which oxygen level (5% of O2, 5% of CO2, 90% of N2) and temperature (37° C.) were controlled. After washing twice with deoxygenated serum-free DMEM, cells were maintained in the hypoxic chamber. Control cells were not exposed to hypoxia. Agmatine or BDNF were added to the culture medium at the start of injury as indicated. Caspase-3 activity was measured using the CaspACE™ colorimetric assay system (Promega, Cat no. G7220) according to the manufacturer's instructions. Briefly, cells were harvested and resuspended in cell lysis buffer (10^8 cells/mL). […] After incubating at 37° C. for 4 hours, absorbance was measured using a microplate reader at 405 nm. Absorbance of each sample was determined by subtraction of the mean absorbance of the blank from that of each sample.

| Compound | LDH release ([1]; 10 ng/mL of TNF-α alone, 24 hours) [%] | LDH release ([1]; 10 ng/mL of TNF-α alone, 48 hours) [%] | LDH release ([1]; 50 ng/mL of TNF-α alone, 24 hours) [%] | LDH release ([1]; 50 ng/mL of TNF-α alone, 48 hours) [%] | hypoxia-induced caspase-3 activity [2] |
| --- | --- | --- | --- | --- | --- |
| TNF-α | 7.04±3.26 | 10.16±1.77 | 13.41±6.20 | 17.00±1.92 |  |
| COC(=O)C[C@H](NC(=O)[C@H](C)NC(=O)[C@@H](NC(=O)OCc1ccccc1)C(C)C)C(=O)CF [Z-VAD-FMK, reference compound] (Cbz-Val-Ala-Asp(OMe)-CH2F) |  |  |  |  | equally suppressed |
